The conditions of data set [1]: reported by Arichi et al. 1982; cited from earlier work.
Data set [2] in a line: Daily mean food consumption of treated fat fed, STZ treated rats. It counts as in vivo, rat. The conditions noted are these: 250 mg/kg q.d.; FIG. 4. On the procedure: FIG. 4 is a line graph showing the mean food consumption (mg) in fat fed, STZ treated rats administered with GELUCIRE™ vehicle only; and 3-hydroxy-4-(3-methyl-2-butenyl)-5-methoxystilbene-2-carboxylic acid (Compound A). -∘- represents vehicle; and -▪- represents Compound A administered at 250 mg/kg q.d. Animals were administered the vehicle and compounds at 24, 48, 72 and 96 h, and serum triglyceride levels were measured at 0, 30, 51, 54, 75 and 80 hours after the oral administration. All data points N=8. *P<0.05 (analysis of variance (ANOVA), one factor).
(§1) Male Sprague Dawley rats arrival from Charles River Laboratories, Hollister, Calif., were fed a high fat (20% by weight) diet (TD 78463) obtained from Harlan Teklad, Madison, Wis., which was stored at 4° C. prior to use. Administration of a high fed diet is a well-known method of inducing hypertriglyceridemia in rats.
(§2) Compound A formulations were prepared fresh daily. The appropriate amount of Compound A in GELUCIRE™ was administered by oral gavage at a volume of 2.5 ml/kg of body weight. Animals were fasted at 8:00 am each day.

The nature of data set [3]: Daily mean body weight of treated fat fed, STZ treated rats. It counts as in vivo, rat. The following applies: 250 mg/kg q.d.; FIG. 3. The protocol: FIG. 3 is a line graph showing the mean body weight […] in fat fed, STZ treated rats administered with GELUCIRE™ vehicle only; and 3-hydroxy-4-(3-methyl-2-butenyl)-5-methoxystilbene-2-carboxylic acid (Compound A). -∘- represents vehicle; and -▪- represents Compound A administered at 250 mg/kg q.d. Animals were administered the vehicle and compounds at 24, 48, 72 and 96 h, and serum triglyceride levels were measured at 0, 30, 51, 54, 75 and 80 hours after the oral administration. All data points N=8. *P<0.05 (analysis of variance (ANOVA), one factor).
as §1, §2

In data set [4] the test system is fat fed, STZ treated male Sprague Dawley rats. The data set is described as follows: In vivo hypotriglyceridemic activity: serum triglyceride levels in fat-fed STZ treated rats. The arrangement: species or system rat. The following applies: 250 mg/kg body weight q.d. The source says: This example illustrates the effectiveness of the stilbenoids of formula (I) in reducing serum triglyceride levels in fat-fed STZ treated male Sprague Dawley rats, i.e., an art-recognized model of hypertriglyceridemia.
This example illustrates the effectiveness of the stilbenoids of formula (I), e.g. longistyline A-2-carboxylic acid (Compound A) in reducing serum triglyceride levels in fat fed, STZ treated male Sprague Dawley rats, i.e., an art recognized model of hypertriglyceridemia. […]
Blood samples from tail snips bleeds were collected six hours after the dose on day one, and three (3) and six (6) hours after the administration of the dose on days 2 through 4 into M brand (Becton Dickinson, Franklin Lakes, N.J.) serum separator tubes, and centrifuged at 12,000 rpm for 10 minutes. Serum was removed and triglyceride levels were measured using enzymatic […] methods (M. W. McGowan, et al., Clin. Chem. 29, 538 (1983) and P Trinder, Ann. Clin. Biochem. 6, 24 (1969)) using Sigma Diagnostic Kits, Sigma Chemical Company, St. Louis, Mo.
Triglyceride levels are expressed as the mean ±SEM. Data were analyzed by one-way analysis of variance (ANOVA), followed by post-hoc Fisher's protected least squares difference (PLSD) tests. […]

In the case of `OC[C@H]1OC(Oc2c(O)cc(O)cc2C=Cc2ccc(O)cc2)[C@H](O)[C@@H](O)[C@@H]1O` (stereo partly drawn) [2,3,5,4′-tetrahydroxy stilbene-2-O-D-glucoside], the Serum triglyceride levels entry in data set [1] is given as “reduce”.
With `OC[C@H]1O[C@@H](Oc2cc(O)cc(/C=C/c3ccc(O)cc3)c2)[C@H](O)[C@@H](O)[C@@H]1O` [Piceid, 3,4′,5-trihydroxystilbene-3-O-β-D-glucopyranoside], in data set [1], the Liver lipid levels result is on record as “lower” and the Serum triglyceride levels entry was “lower”.
As for `COc1cc(/C=C/c2ccccc2)c(C(=O)O)c(O)c1CC=C(C)C` [Compound A, 3-hydroxy-4-(3-methyl-2-butenyl)-5-methoxystilbene-2-carboxylic acid], the “Food intake (daily mean food consumption)” value in data set [2] is “not effected by the treatments”. In data set [3], the “Gain in rat body weight over the course of treatment” value is “normal and similar among the treatment groups”. Besides, the “Serum triglyceride (TG) levels compared with vehicle only” value in data set [4] (oral gavage in GELUCIRE vehicle, at each of the time points, p<0.05, FIG. 2) was “significantly lower”. Moreover, the “Mean TG levels compared with GELUCIRE vehicle treatment group at individual sampling times” value in data set [4] (from day 2 through the end of treatment) is “significantly lower”.

(Values after US20020058708A1, “Compositions containing hypotriglyceridemically active stilbenoids” (priority 2000, published 2002).)
